Experimental data from patent US20200270647A1, “TRANSGENIC STRAIN FOR PRODUCING SUCCINATE AND METHOD FOR PRODUCING SUCCINATE” (NATIONAL CHIAO TUNG UNIVERSITY, priority 2019, published 2020).

Test system: PCC7942 cyanobacterium strain
Procedure: The bacterium amount (cell amount) was monitored by measuring the optical density (OD) of the culture medium at a wavelength of 730 nm using the Biotek epoch 2 microplate spectrophotometer. The OD730 is calculated based on a recalibration of an optical path length 1 cm.

SMILES | growth inhibition effect on the cyanobacterium strain (wild-type PCC7942 in BG-11, different concentrations, cell density observed for three days, versus sodium chloride with same sodium concentration) | toxicity to the growth or persistence of the cyanobacterium strain
O=C([O-])CCC(=O)[O-].[Na+].[Na+] [disodium succinate] | almost equivalent to the growth inhibition effect of sodium chloride | –
O=C(O)CCC(=O)O [succinate] | – | not toxic
